# Source: patent publication US20250179078A1, “INHIBITORS OF NLRP3” (PTC THERAPEUTICS, INC., priority 2022, published 2025)
# Target: T1, NLRP3 (Homo sapiens, UniProt Q96P20)
# T1 construct: host or cells: THP-1 cells differentiated with PMA
# Assay: IL-1β Secretion Assay (NLRP3-dependent IL1β secretion in THP1 cells)
# Assay type: cell-based
# Settings: PMA-differentiated THP-1 cells; compounds incubated 20 h; 2.5 μM Nigericin 3 h; HTRF IL-1β readout; read-out: IC50 IL-1β Inhibition
# How it was run: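 IL-1β in conditioned media, measured by HTRF after 3 h 2.5 μM nigericin stimulation, gave % inhibition fitted logistically for IC50. Before that, PMA-differentiated (100 ng/mL, 24 h) THP-1 cells were preincubated 20 h with 7 compound concentrations (3-fold serial, DMSO 1:200).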
# T1 sequence (Q96P20 whole entry): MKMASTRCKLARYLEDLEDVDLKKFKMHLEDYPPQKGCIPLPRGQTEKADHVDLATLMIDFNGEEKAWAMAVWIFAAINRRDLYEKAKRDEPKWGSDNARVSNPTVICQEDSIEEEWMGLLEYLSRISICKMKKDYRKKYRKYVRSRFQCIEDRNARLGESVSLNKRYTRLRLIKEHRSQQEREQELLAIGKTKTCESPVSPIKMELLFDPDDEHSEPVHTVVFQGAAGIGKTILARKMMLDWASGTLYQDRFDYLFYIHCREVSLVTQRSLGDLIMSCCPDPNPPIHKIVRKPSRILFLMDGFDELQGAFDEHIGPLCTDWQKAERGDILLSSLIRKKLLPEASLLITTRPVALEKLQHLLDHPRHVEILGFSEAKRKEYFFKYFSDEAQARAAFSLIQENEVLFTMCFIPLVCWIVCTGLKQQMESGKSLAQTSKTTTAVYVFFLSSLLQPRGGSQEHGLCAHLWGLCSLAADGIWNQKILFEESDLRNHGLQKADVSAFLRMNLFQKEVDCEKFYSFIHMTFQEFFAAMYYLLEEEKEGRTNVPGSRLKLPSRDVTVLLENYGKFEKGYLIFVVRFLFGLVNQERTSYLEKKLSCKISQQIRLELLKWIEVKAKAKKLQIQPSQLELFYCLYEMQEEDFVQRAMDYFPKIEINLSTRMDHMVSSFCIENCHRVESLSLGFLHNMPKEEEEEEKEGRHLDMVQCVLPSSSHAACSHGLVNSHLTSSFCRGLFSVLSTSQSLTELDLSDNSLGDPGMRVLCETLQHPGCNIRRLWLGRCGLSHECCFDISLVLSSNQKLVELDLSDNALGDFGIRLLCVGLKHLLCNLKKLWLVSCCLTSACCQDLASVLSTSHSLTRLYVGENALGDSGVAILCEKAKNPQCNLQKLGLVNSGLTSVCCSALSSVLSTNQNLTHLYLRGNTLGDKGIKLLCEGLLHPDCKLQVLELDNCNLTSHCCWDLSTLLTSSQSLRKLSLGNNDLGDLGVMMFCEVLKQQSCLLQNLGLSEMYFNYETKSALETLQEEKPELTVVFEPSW
row,SMILES,IC50 [nM]
1,"COc1ccc(-c2nnc(N[C@@H]3CCC[C@H](O)C3)n3cccc23)c(C2CC2)c1 [Compound 106, (1S,3R)-3-{[1-(2-cyclopropyl-4-methoxyphenyl)pyrrolo[1,2-d][1,2,4]triazin-4-yl]amino}cyclohexan-1-ol]",10 to 100
2,"Cc1cc2c(-c3ccc(C(F)(F)F)cc3C(F)(F)F)nnc(N[C@H]3C[C@@](C)(O)C3)n2c1 [Compound 107, (1s,3s)-3-({1-[2,4-bis(trifluoromethyl)phenyl]-7-methylpyrrolo[1,2-d][1,2,4]triazin-4-yl}amino)-1-methylcyclobutan-1-ol]",10 to 100
3,"COc1ccc(-c2nnc(N[C@H]3C[C@@](C)(O)C3)n3cc(C)cc23)c(OC(F)(F)F)c1 [Compound 108, (1s,3s)-3-({1-[4-methoxy-2-(trifluoromethoxy)phenyl]-7-methylpyrrolo[1,2-d][1,2,4]triazin-4-yl}amino)-1-methylcyclobutan-1-ol]",1 to 10
4,"Cc1cc2c(-c3ccc(C(F)(F)F)cc3C(F)(F)F)nnc(N[C@@H]3CCCN(C)C3)n2c1 [Compound 109, 1-[2,4-bis(trifluoromethyl)phenyl]-7-methyl-N-[(3R)-1-methylpiperidin-3-yl]pyrrolo[1,2-d][1,2,4]triazin-4-amine]",1 to 10
5,"O[C@@H]1CCCC[C@H]1Nc1nnc(-c2ccc(C(F)(F)F)cc2OC(F)F)c2cccn12 [Compound 110, (1R,2R)-2-({1-[2-(difluoromethoxy)-4-(trifluoromethyl)phenyl]pyrrolo[1,2-d][1,2,4]triazin-4-yl}amino)cyclohexan-1-ol]",1 to 10
6,"O[C@H]1CCCC[C@@H]1Nc1nnc(-c2ccc(C(F)(F)F)cc2CC(F)(F)F)c2cccn12 [Compound 111, (1S,2S)-2-({1-[2-(2,2,2-trifluoroethyl)-4-(trifluoromethyl)phenyl]pyrrolo[1,2-d][1,2,4]triazin-4-yl}amino)cyclohexan-1-ol]",1 to 10
7,"O[C@@H]1COCC[C@H]1Nc1nnc(-c2ccc(C(F)(F)F)cc2CC(F)(F)F)c2cccn12 [Compound 112, (3S,4R)-4-({1-[2-(2,2,2-trifluoroethyl)-4-(trifluoromethyl)phenyl]pyrrolo[1,2-d][1,2,4]triazin-4-yl}amino)oxan-3-ol]",1 to 10
8,"O[C@H]1COCC[C@@H]1Nc1nnc(-c2ccc(C(F)(F)F)cc2CC(F)(F)F)c2cccn12 [Compound 113, (3R,4S)-4-({1-[2-(2,2,2-trifluoroethyl)-4-(trifluoromethyl)phenyl]pyrrolo[1,2-d][1,2,4]triazin-4-yl}amino)oxan-3-ol]",1 to 10
9,"O[C@H]1COCC[C@H]1Nc1nnc(-c2ccc(C(F)(F)F)cc2CC(F)(F)F)c2cccn12 [Compound 114, (3R,4R)-4-({1-[2-(2,2,2-trifluoroethyl)-4-(trifluoromethyl)phenyl]pyrrolo[1,2-d][1,2,4]triazin-4-yl}amino)oxan-3-ol]",1 to 10
10,"O[C@@H]1COCC[C@@H]1Nc1nnc(-c2ccc(C(F)(F)F)cc2CC(F)(F)F)c2cccn12 [Compound 115, (3S,4S)-4-({1-[2-(2,2,2-trifluoroethyl)-4-(trifluoromethyl)phenyl]pyrrolo[1,2-d][1,2,4]triazin-4-yl}amino)oxan-3-ol]",1 to 10
11,"COc1ccc(-c2nnc(NC3CCNC3=O)n3ccc(F)c23)c(C(F)(F)F)c1 (centres unmarked) [Compound 116, 3-({8-fluoro-1-[4-methoxy-2-(trifluoromethyl)phenyl]pyrrolo[1,2-d][1,2,4]triazin-4-yl}amino)pyrrolidin-2-one]",10 to 100
12,"COc1ccc(-c2nnc(Nc3cc[nH]n3)n3ccc(F)c23)c(C(F)(F)F)c1 [Compound 117, 8-fluoro-1-[4-methoxy-2-(trifluoromethyl)phenyl]-N-(1H-pyrazol-3-yl)pyrrolo[1,2-d][1,2,4]triazin-4-amine]",10 to 100
13,"COc1cc(C)c(-c2nnc(N[C@@H]3CCCN(C)C3)n3cccc23)c(F)c1 [Compound 118, 1-(2-fluoro-4-methoxy-6-methylphenyl)-N-[(3R)-1-methylpiperidin-3-yl]pyrrolo[1,2-d][1,2,4]triazin-4-amine]",< 1
14,"CCN1CCC[C@@H](Nc2nnc(-c3ccc(C(F)(F)F)cc3OC(F)(F)F)c3cccn23)C1 [Compound 119, N-[(3R)-1-ethylpiperidin-3-yl]-1-[2-(trifluoromethoxy)-4-(trifluoromethyl)phenyl]pyrrolo[1,2-d][1,2,4]triazin-4-amine]",< 1
15,"OCCN1CCC[C@@H](Nc2nnc(-c3ccc(C(F)(F)F)cc3OC(F)(F)F)c3cccn23)C1 [Compound 120, 2-[(3R)-3-({1-[2-(trifluoromethoxy)-4-(trifluoromethyl)phenyl]pyrrolo[1,2-d][1,2,4]triazin-4-yl}amino)piperidin-1-yl]ethan-1-ol]",< 1
16,"O[C@H]1CCCC[C@@H]1Nc1nnc(-c2ccc(C(F)(F)F)cc2OC(F)(F)F)c2cccn12 [Compound 121, (1S,2S)-2-({1-[2-(trifluoromethoxy)-4-(trifluoromethyl)phenyl]pyrrolo[1,2-d][1,2,4]triazin-4-yl}amino)cyclohexan-1-ol]",10 to 100
17,"O[C@H]1CCC[C@@H](Nc2nnc(-c3ccc(C(F)(F)F)cc3OC(F)(F)F)c3cccn23)C1 [Compound 122, (1S,3R)-3-({1-[2-(trifluoromethoxy)-4-(trifluoromethyl)phenyl]pyrrolo[1,2-d][1,2,4]triazin-4-yl}amino)cyclohexan-1-ol]",1 to 10
18,"C[C@]1(O)C[C@@H](Nc2nnc(-c3ccc(C(F)(F)F)cc3OC(F)(F)F)c3cccn23)C1 [Compound 123, (1s,3s)-1-methyl-3-({1-[2-(trifluoromethoxy)-4-(trifluoromethyl)phenyl]pyrrolo[1,2-d][1,2,4]triazin-4-yl}amino)cyclobutan-1-ol]",1 to 10
19,"O=C1NCCC1Nc1nnc(-c2ccc(C(F)(F)F)cc2OC(F)(F)F)c2cccn12 (centres unmarked) [Compound 124, 3-({1-[2-(trifluoromethoxy)-4-(trifluoromethyl)phenyl]pyrrolo[1,2-d][1,2,4]triazin-4-yl}amino)pyrrolidin-2-one]",1 to 10
20,"COc1ccc(-c2nnc(NCc3nnnn3C)n3cccc23)c(OC(F)(F)F)c1 [Compound 125, 1-[4-methoxy-2-(trifluoromethoxy)phenyl]-N-[(1-methyl-1H-tetrazol-5-yl)methyl]pyrrolo[1,2-d][1,2,4]triazin-4-amine]",100 to 300
21,"O[C@@H]1CCCCC[C@H]1Nc1nnc(-c2ccc(C(F)(F)F)cc2CC(F)(F)F)c2cccn12.O[C@H]1CCCCC[C@@H]1Nc1nnc(-c2ccc(C(F)(F)F)cc2CC(F)(F)F)c2cccn12 [Compound 127, (1R,2R)-2-({1-[2-(2,2,2-trifluoroethyl)-4-(trifluoromethyl)phenyl]pyrrolo[1,2-d][1,2,4]triazin-4-yl}amino)cycloheptan-1-ol AND (1S,2S)-2-({1-[2-(2,2,2-trifluoroethyl)-4-(trifluoromethyl)phenyl]pyrrolo[1,2-d][1,2,4]triazin-4-yl}amino)cycloheptan-1-ol]",10 to 100
22,"O[C@@H]1CCCC[C@H](Nc2nnc(-c3ccc(C(F)(F)F)cc3CC(F)(F)F)c3cccn23)C1.O[C@H]1CCCC[C@@H](Nc2nnc(-c3ccc(C(F)(F)F)cc3CC(F)(F)F)c3cccn23)C1 [Compound 128, (1S,3R)-3-({1-[2-(2,2,2-trifluoroethyl)-4-(trifluoromethyl)phenyl]pyrrolo[1,2-d][1,2,4]triazin-4-yl}amino)cycloheptan-1-ol AND (1R,3S)-3-({1-[2-(2,2,2-trifluoroethyl)-4-(trifluoromethyl)phenyl]pyrrolo[1,2-d][1,2,4]triazin-4-yl}amino)cycloheptan-1-ol]",1 to 10
23,"COc1ccc(-c2nnc(N[C@H]3C[C@@](C)(O)C3)n3ccc(F)c23)c(C(F)(F)F)c1 [Compound 130, (1s,3s)-3-({8-fluoro-1-[4-methoxy-2-(trifluoromethyl)phenyl]pyrrolo[1,2-d][1,2,4]triazin-4-yl}amino)-1-methylcyclobutan-1-ol]",1 to 10
24,"COc1ccc(-c2nnc(N[C@@H]3CCCN(C)C3)n3cc(C)cc23)c(OC(F)(F)F)c1 [Compound 131, 1-[4-methoxy-2-(trifluoromethoxy)phenyl]-7-methyl-N-[(3R)-1-methylpiperidin-3-yl]pyrrolo[1,2-d][1,2,4]triazin-4-amine]",< 1
25,"Cc1cc2c(-c3ccc(C(F)(F)F)cc3C(F)(F)F)nnc(N[C@H]3CCCC[C@@H]3O)n2c1 [Compound 132, (1S,2S)-2-({1-[2,4-bis(trifluoromethyl)phenyl]-7-methylpyrrolo[1,2-d][1,2,4]triazin-4-yl}amino)cyclohexan-1-ol]",10 to 100
26,"COc1ccc(-c2nnc(N[C@H]3CCCC[C@@H]3O)n3cc(C)cc23)c(OC(F)(F)F)c1 [Compound 133, (1S,2S)-2-({1-[4-methoxy-2-(trifluoromethoxy)phenyl]-7-methylpyrrolo[1,2-d][1,2,4]triazin-4-yl}amino)cyclohexan-1-ol]",10 to 100
27,"CCN1CC[C@@H](O)[C@@H](Nc2nnc(-c3ccc(C(F)(F)F)cc3C(F)(F)F)c3cc(C)cn23)C1 [Compound 134, (3S,4R)-3-({1-[2,4-bis(trifluoromethyl)phenyl]-7-methylpyrrolo[1,2-d][1,2,4]triazin-4-yl}amino)-1-ethylpiperidin-4-ol]",1 to 10
28,"CCN1CC[C@@H](O)[C@@H](Nc2nnc(-c3ccc(OC)cc3OC(F)(F)F)c3cc(C)cn23)C1 [Compound 135, (3S,4R)-1-ethyl-3-({1-[4-methoxy-2-(trifluoromethoxy)phenyl]-7-methylpyrrolo[1,2-d][1,2,4]triazin-4-yl}amino)piperidin-4-ol]",< 1
29,"Cc1ccc(-c2nnc(N[C@@H]3CCCC[C@H]3O)n3cccc23)c(OC(F)F)c1 [Compound 136, (1R,2R)-2-({1-[2-(difluoromethoxy)-4-methylphenyl]pyrrolo[1,2-d][1,2,4]triazin-4-yl}amino)cyclohexan-1-ol]",1 to 10
